Laboratory results: article PMC11284787, “Ligand-Directed Labeling of the Adenosine A1 Receptor in Living Cells” (Journal of Medicinal Chemistry, 2024)

Assays:
[1] = target: T1, NL-hA1AR (Homo sapiens, UniProt P30542); experiment: NanoBRET saturation ligand-binding assay, NL-hA1AR
T1 construct: expressed in transfected cells
T1 sequence (P30542 1-326): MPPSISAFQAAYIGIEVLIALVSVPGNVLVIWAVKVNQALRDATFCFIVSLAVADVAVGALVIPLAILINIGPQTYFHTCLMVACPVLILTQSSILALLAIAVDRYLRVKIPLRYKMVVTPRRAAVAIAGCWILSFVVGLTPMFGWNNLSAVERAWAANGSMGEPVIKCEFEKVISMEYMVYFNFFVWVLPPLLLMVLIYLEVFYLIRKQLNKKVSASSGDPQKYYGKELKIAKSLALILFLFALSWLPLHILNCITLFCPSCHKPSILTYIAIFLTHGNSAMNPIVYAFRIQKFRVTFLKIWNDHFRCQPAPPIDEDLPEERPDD
Procedure: The ligand-binding properties of the newly synthesized probes were assessed in a series of pharmacological assays. Initially, a NanoBRET[47],[48] saturation binding experiment was used to evaluate the binding affinity of ligand-directed probes functionally labeled with the SulfoCy5 fluorophore (11) to the NanoLuc(NL)-tagged[49] hA1AR expressed in HEK293T cells.
NanoBRET binding assay. All NanoBRET experiments were performed in white flat […]
37 °C for kinetic binding experiments. Emissions were read at 420 nm (80 nm bandpass; […]
the SulfoCy5-labelled probe. […]
nm emission by the 420 nm emission. The term “raw BRET ratio” refers to the unprocessed data as no background ratio has been subtracted. In all NanoBRET binding […]
competitive antagonist selective for the adenosine receptor under investigation […]
MRS1220 for the A3AR). HEK293T cells stably/transiently expressing Nluc-AR were […]
were incubated for 1 h at 37 °C. […]
NanoBRET saturation binding assay. Total and nonspecific saturation binding curves were fit simultaneously using the following equation: […]

[2] = Fluorescence correlation spectroscopy in solution (HBSS); format: physicochemical
Procedure: The suitability of probe 11 for use with FCS was initially tested by recording 10 × 10 s trace reads in solution (100 nM in HBSS) (Figure S4). […] A 488 nm […] laser was used to excite SNAP-AF488 and the emission […] The pinhole diameter (1 Airy Unit; 1.1 μm optical slice), laser power and gain was kept constant in all the experiments. Images were acquired as 16-bit depth, 1024x1024 pixel resolution with a line averaging of 8 (or 2) and a pixel dwell time 4.12 µs (set to 5). Images were either processed in Zeiss ZEN 2 (blue edition) or FIJI (ImageJ) version 2.0.0 software, and linear adjustments to the brightness and contrast have been applied equally across all the images. To obtain membrane intensity values, regions of interest were drawn by hand around regions of cell membranes in FIJI (ImageJ)10 version 2.0.0 software. Fluorescence Correlation Spectroscopy. […] After that time, cells were washed 3x with warm HBSS over the course of 20 min, followed by the addition of 300 µL HBSS, left to cool to 24 OC and used in Fluorescence Correlation Spectroscopy (FCS) studies. […] For solution-based reads 10 x 10s trace measurements were taken within 200 µL sample with the confocal observation volume placed 200 µm above the coverslip. For apical membrane reads, 3 x 30s trace measurements at ~0.5 kW/cm2 laser power were taken on the apical membrane with its position determined as the peak of a point intensity S9 page 10: Z-scan utilising an argon 488 nm laser excitation, at ~0.5kW/cm2 laser power, detecting […] The placement was lowered by 0.2 µm to account for the optical chromatic offset between the 488 nm and 633 nm detection previously determined for our microscope set-up. Autocorrelation curves (AC) were constructed from fluorescence fluctuation traces and analysed within Zen Black (2012) software. […] Fluorescence fluctuation traces were reanalysed with Photon Counting Histogram analysis to determine the average molecular brightness of detected species. […]

SMILES: CCCCn1c(=O)c2[nH]c(C34CCC(C(=O)NCCNC(=O)CCNC(=O)c5ccc(OC(=O)CCCCC[N+]6=C(/C=C/C=C/C=C7/N(C)c8ccc(S(=O)(=O)O)cc8C7(C)C)C(C)(C)c7cc(S(=O)(=O)[O-])ccc76)c(F)c5)(CC3)CC4)nc2n(CCCC)c1=O [Compound 11, 1-(6-(4-((3-((2-(4-(1,3-Dibutyl-2,6-dioxo-2,3,6,7-tetrahydro-1H-purin-8-yl)bicyclo[2.2.2]octane-1-carboxamido)ethyl)amino)-3-oxopropyl)carbamoyl)-2-fluorophenoxy)-6-oxohexyl)-3,3-dimethyl-2-((1E,3E)-5-((E)-1,3,3-trimethyl-5-sulfoindolin-2-ylidene)penta-1,3-dien-1-yl)-3H-indol-1-ium-5-sulfonate]
- Kd ([1]; HEK293T cells stably expressing NL-hA1AR, 1 h 37 °C, mean ± SEM, read-out: affinity values pKD, NL-hA1AR (converted)): 0.0309 µM
- greater affinity for the NL-A1AR compared to the NL-A2AAR (saturation binding) ([1]; selectivity from pKD values): 7 fold
- dwell time in solution (FCS, 3D diffusion model) ([2]; 100 nM in HBSS): 117.6 ± 17.6 μs
- diffusion coefficient, D, in solution ([2]; 100 nM in HBSS, calibrated with Cy5): 142.7 ± 17.3 μm^2/s
- PCH analysis, state in solution ([2]; 1-component fit, HBSS): single species with no aggregation
